Results from paper PMC7291828 (Journal of medicinal chemistry, 2019).
Where a SMILES comes first, the peptide text is derived from it. Bridges are numbered along the chain shown (N, C = ends). Roman numbers before positions name the chains, in order. [ ]: non-standard residue; d: D form. 2Nal = N[C@@H](Cc1ccc2ccccc2c1)C(=O)O; Dap = NC[C@H](N)C(=O)O; AEEA = NCCOCCOCC(=O)O

Experiments:
[1] = tested on: MCF7, HCT116 and HeLa cells; settings: ≥20 μM, apparently off-target (membrane disruption)
SW480 cells = settings: up to 50 μM
HeLa cells = assay: Live-cell confocal microscopy of FAM-labeled peptides; type: cell-based; settings: 5 μM FAM-labeled peptide, 2 h, 1% FBS
SJSA-1 cells = assay: MTT viability assay, SJSA-1 cells; type: cell-based, human
[2] = cited from earlier work

For CC(=O)N[C@@H](CC(C)C)C(=O)N[C@H](C(=O)N[C@@H](Cc1ccccc1)C(=O)N[C@H]1CC(=O)NCCCC[C@@H](C(=O)N[C@@H](CCC(N)=O)C(=O)N[C@@H](CC(C)C)C(=O)N[C@H](C(=O)N[C@@H](CO)C(=O)NCCOCCOCC(=O)N[C@@H](CCCCNC(=O)CC[C@@H]2NC(=O)[C@@H](CCCNC(=N)N)NC(=O)[C@H](CCCNC(=N)N)NC(=O)[C@@H](CCCNC(=N)N)NC(=O)[C@H](CCCNC(=N)N)NC(=O)[C@H](Cc3ccc4ccccc4c3)NC(=O)[C@@H](Cc3ccccc3)NC2=O)C(N)=O)[C@@H](C)O)NC(=O)[C@H](Cc2c[nH]c3ccccc23)NC(=O)[C@H](Cc2ccc(O)cc2)NC(=O)[C@H](Cc2cnc[nH]2)NC1=O)[C@@H](C)O [Peptide 4] (I: Ac-LTFDHYWKQLTS[AEEA]K-NH2 / II: cyclo([2Nal]R[dR]R[dR]E[dF]); lactam I:4-I:8; amide I:14-II:6), which “effect on cell viability at higher concentrations” value [1] is on record?
Its value is “almost complete loss of cell viability”.

Which “LDH release from SW480 cells” value (SW480 cells) does the source give for CC[C@H](C)[C@@H]1NC(=O)[C@@H](NC(=O)[C@H](CCC(=O)O)NC(=O)[C@@H]2CCCN2C(=O)[C@H](Cc2ccc(O)cc2)NC(=O)CNC(=O)CNC(C)=O)CC(=O)NCCCC[C@@H](C(=O)N[C@@H](Cc2cnc[nH]2)C(=O)N[C@@H](CC(C)C)C(=O)N[C@@H](CCC(N)=O)C(=O)N[C@@H](CCCNC(=N)N)C(=O)N[C@H](C(=O)N[C@H](C(=O)N[C@@H](CC(C)C)C(=O)NCCOCCOCC(=O)NCCOCCOCC(=O)N[C@@H](CNC(=O)CC[C@@H]2NC(=O)[C@@H](CCCNC(=N)N)NC(=O)[C@H](CCCNC(=N)N)NC(=O)[C@@H](CCCNC(=N)N)NC(=O)[C@H](CCCNC(=N)N)NC(=O)[C@H](Cc3ccc4ccccc4c3)NC(=O)[C@@H](Cc3ccccc3)NC2=O)C(N)=O)[C@@H](C)CC)C(C)C)NC(=O)[C@H](CC(=O)O)NC(=O)[C@H](CC(C)C)NC1=O [Peptide 9] (I: Ac-GGYPEDILDKHLQRVIL[AEEA][AEEA][Dap]-NH2 / II: cyclo([2Nal]R[dR]R[dR]E[dF]); lactam I:6-I:10; amide I:20-II:6) here?
The value was “did not cause significant LDH release”.

Which “intracellular fluorescence” value (HeLa cells) does the source give for “Ac-EETFCHYWCQLTS-miniPEG-K(FAM) (bicyclic or more) [Peptide 25]” here?
Its value is “brightly fluorescent”.

With “Ac-ETFCHYWCQLTS-miniPEG-K(FAM) (bicyclic or more) [Peptide 23]” as the molecule, how does the “intracellular fluorescence” value (HeLa cells) read?
Its value is “brightly fluorescent”.

For “Ac-LTFCHYWCQLTS-miniPEG-K(FAM) (bicyclic or more) [Peptide 21]”, which “intracellular fluorescence” value (HeLa cells) is on record?
The value was “brightly fluorescent”.

Which “effect on viability of SJSA-1 cells” value (SJSA-1 cells) does the source give for “Ac-LTFDHYWKQLTS-miniPEG-K(R9) (sidechain bridge or staple) [Peptide 7]” here?
Its value is “did not cause significant reduction”.

With “Ac-LTFDHYWKQLTS-miniPEG-K(Tat) (sidechain bridge or staple) [Peptide 6]” as the molecule, how does the “effect on viability of SJSA-1 cells” value (SJSA-1 cells) read?
Its value is “did not cause significant reduction”.

For nonaarginine [Peptide R9], which “fold lower cytosolic delivery efficiency than cyclic CPP9” value [2] is on record?
Its value is 15 fold.
